Three compounds from ChEMBL document CHEMBL3046180, “Antifungal activity of some diaryl ethers” (2007) can be followed below.

Calls of active or inactive are those of the source. The calls are words filed in the database; no cut-off is given here.

Experiment [1] relates to Bipolaris sorokiniana. The experiment can be described thus: Growth inhibition of Bipolaris sorokiniana at 50 ug/ml after 4 days by poisoned food technique. The experiment is classed as functional. To be noted: 96 h, read-out: GI.
In experiment [2] the test system is Bipolaris sorokiniana. Briefly: Growth inhibition of Bipolaris sorokiniana at 500 ug/ml after 4 days by poisoned food technique. The experiment is classed as functional. To be noted: 96 h, read-out: GI.
Experiment [3] concerns Fusarium graminearum. The experiment can be described thus: Antifungal activity against Fusarium graminearum assessed as mycelial growth inhibition at 250 to 500 ug/ml after 4 days by poisoned food technique. The experiment is classed as functional, organism-based.
In experiment [4] the test system is Alternaria brassicae. Briefly: Growth inhibition of Alternaria brassicae at 50 ug/ml after 4 days by poisoned food technique. Format: functional. To be noted: 96 h, read-out: GI.
In experiment [5] the test system is Alternaria brassicae. Briefly: Growth inhibition of Alternaria brassicae at 500 ug/ml after 4 days by poisoned food technique. The experiment is classed as functional. To be noted: 96 h, read-out: GI.
Experiment [6] deals with Fusarium oxysporum f. sp. cucumerinum. The experiment can be described thus: Growth inhibition of Fusarium oxysporum f. sp. cucumerinum at 50 ug/ml after 4 days by poisoned food technique. The experiment is classed as functional. To be noted: 96 h, read-out: GI.
Experiment [7] has the same test system. Briefly: Growth inhibition of Fusarium oxysporum f. sp. cucumerinum at 500 ug/ml after 4 days by poisoned food technique. Format: functional. To be noted: 96 h, read-out: GI.
The test system of experiment [8] is Fusarium oxysporum f. sp. vasinfectum. The experiment can be described thus: Growth inhibition of Fusarium oxysporum f. sp. vasinfectum at 50 ug/ml after 4 days by poisoned food technique. Format: functional. To be noted: 96 h, read-out: GI.
The test system is the same in experiment [9]. The experiment can be described thus: Growth inhibition of Fusarium oxysporum f. sp. vasinfectum at 500 ug/ml after 4 days by poisoned food technique. Format: functional. To be noted: 96 h, read-out: GI.
Experiment [10] has as its system Pyricularia oryzae. Briefly: Growth inhibition of Magnaporthe oryzae at 50 ug/ml after 4 days by poisoned food technique. Format: functional. As to conditions: 96 h, read-out: GI.
The test system of experiment [11] is Pyricularia oryzae. The experiment can be described thus: Growth inhibition of Magnaporthe oryzae at 500 ug/ml after 4 days by poisoned food technique. Format: functional. To be noted: 96 h, read-out: GI.
The subject of experiment [12] is Alternaria alternata. The experiment can be described thus: Growth inhibition of Alternaria alternata at 50 ug/ml after 4 days by poisoned food technique. Format: functional. To be noted: 96 h, read-out: GI.
Experiment [13] has as its system Fusarium graminearum. The experiment can be described thus: Growth inhibition of Fusarium graminearum at 500 ug/ml after 4 days by poisoned food technique. Format: functional. To be noted: 96 h, read-out: GI.
Experiment [14] relates to Alternaria alternata. Briefly: Growth inhibition of Alternaria alternata at 500 ug/ml after 4 days by poisoned food technique. Format: functional. As to conditions: 96 h, read-out: GI.
In experiment [15] the test system is Fusarium graminearum. Briefly: Growth inhibition of Fusarium graminearum at 50 ug/ml after 4 days by poisoned food technique. The experiment is classed as functional. As to conditions: 96 h, read-out: GI.

As for `O=[N+]([O-])c1ccccc1Oc1ccccc1`, the inhibition of growth at 50 µg/mL in [1] was determined as 95%; in experiment [4], 79%; in [6] it was 55.6%; in [8] it was 70.1%; in [10] it was 58%; in experiment [12], 62.2%. In addition, the inhibition of growth at 50 µg/mL in experiment [15] came out at 64.9%. Besides, the inhibition of growth at 500 µg/mL in experiment [2] stood at 30.2%; in [5] it was 87.9%; in [7], 65.3%; in [9], 70.9%; in experiment [11], 92%; in [13] it was 94%. Moreover, the inhibition of growth at 500 µg/mL in experiment [14] worked out at 95.3%. Besides, the “growth inhibition (GI)” value in experiment [3] is “Active”.

Regarding `O=[N+]([O-])c1ccccc1Oc1ccc(Cl)cc1`, the inhibition of growth at 50 µg/mL in [1] stood at 79.9%; in experiment [4], 61%; in experiment [6] it was 44.9%; in experiment [8], 40.3%; in experiment [10] it was 48.3%; in [12] it was 51.8%. Also, the inhibition of growth at 50 µg/mL in experiment [15] was determined as 59.7%. The inhibition of growth at 500 µg/mL in [2] was 40.9%; in experiment [5] it was 74.3%; in experiment [7] it was 50.2%; in [9], 47.5%; in experiment [11], 69%; in experiment [13] it was 73.6%. Moreover, the inhibition of growth at 500 µg/mL in experiment [14] worked out at 71.7%.

With `Cc1cccc(Oc2ccccc2[N+](=O)[O-])c1`, the inhibition of growth at 50 µg/mL is 85.5% in experiment [1]; 58.9% in [4]; 50.2% in experiment [6]; 53.2% in experiment [8]; 56.3% in experiment [10]; 49% in experiment [12]. Further, the inhibition of growth at 50 µg/mL in experiment [15] came to 38.8%. Also, the inhibition of growth at 500 µg/mL in [2] was 58.5%; in [5], 73.9%; in experiment [7], 46%; in experiment [9], 46.7%; in experiment [11], 82.8%; in [13], 70.1%. In addition, the inhibition of growth at 500 µg/mL in experiment [14] was 74.5%.
